From patent publication US6562817B1, “Tricyclic compound” (Shionogi & Co., Ltd., priority 1998, dated 2003)

Experiments:
[1] = system: anti-OVA IgE production in BALB/c mice; test: Suppressive effect on the IgE production against ovalbumin (OVA): anti-OVA IgE antibody titer (PCA titer); format: in vivo, mouse; settings: BALB/c mice immunized with OVA, 40 mg/kg orally for 10 days; titer = highest 2^n serum dilution positive in rat PCA
Experimental: Suppressive effect on the IgE Production Against ovalbumin (OVA)
BALB/c mice (female, 8-10 weeks old) and Wistar rats (female, 8-10 weeks old) which were bought from Japan SLC, Inc. (Shizuoka) were used.
BALB/c mice were immunized by an intraperitoneal administration of 0.2 ml suspension of 2 μg of ovalbumin (OVA) and 2 mg of aluminium hydroxide gel in physiological saline. After 10 days, blood was collected from hearts, then sera were separated and stocked at −40° C. till the measurement of IgE antibody titer.
After the compound of the present invention was dissolved or suspended in N,N-dimethylacetoamide, the mixture was diluted 20 times with miglyol 812 neutral oil. The obtained solution was orally administered to mice at 0.1 ml per mouse (dose 40 mg/kg). The administration was continued for 10 days from the immunizing day to the day before the blood collection.
The obtained mouse serum was 2-fold diluted with physiological saline, then each 50 μl of the solution was intradermally injected at dorsal skin of Wistar rats which previously hair cut. After 24 hours, a passive cutaneous anaphylaxis reaction (PCA) was induced by an intravenous injection of 0.5 ml of physiological saline containing 1 mg of OVA and 5 mg of Evans' blue dye. The rats were sacrified 30 minutes later and the highest dilution giving bluing with a diameter of 5 mm or more was recorded as the PCA titer. […]

CC(C)=CCNc1ccc(-c2cc(C)c(-c3ccc(OCC=C(C)C)nc3)cc2C)c(F)c1 [Ib-250]
PCA Titer [1]: 0
melting point: 87 to 88 °C
